Literature values in patent US20090053319A1 (priority 2007, published 2009).

Settings: pure capsaicinoid; background statement

COc1cc(CNC(=O)CCCC/C=C/C(C)C)ccc1O [Capsaicin]
pungency (Scoville scale): 15,000,000-16,000,000 Scoville units
